The numbers were not newly measured in patent US10208063B2, “ACC inhibitors and uses thereof” (Gilead Apollo, LLC, priority 2013, dated 2019), which cites them from elsewhere.

Usually IC50 stands for the concentration that inhibits the measured activity by half.

Data set [1] concerns C2C12 cells.
Data set [2] deals with Hep-G2 cells.
The target in data set [3] is T1, pyruvate carboxylase (Homo sapiens, UniProt P11498).
T1 sequence (P11498 21-1178): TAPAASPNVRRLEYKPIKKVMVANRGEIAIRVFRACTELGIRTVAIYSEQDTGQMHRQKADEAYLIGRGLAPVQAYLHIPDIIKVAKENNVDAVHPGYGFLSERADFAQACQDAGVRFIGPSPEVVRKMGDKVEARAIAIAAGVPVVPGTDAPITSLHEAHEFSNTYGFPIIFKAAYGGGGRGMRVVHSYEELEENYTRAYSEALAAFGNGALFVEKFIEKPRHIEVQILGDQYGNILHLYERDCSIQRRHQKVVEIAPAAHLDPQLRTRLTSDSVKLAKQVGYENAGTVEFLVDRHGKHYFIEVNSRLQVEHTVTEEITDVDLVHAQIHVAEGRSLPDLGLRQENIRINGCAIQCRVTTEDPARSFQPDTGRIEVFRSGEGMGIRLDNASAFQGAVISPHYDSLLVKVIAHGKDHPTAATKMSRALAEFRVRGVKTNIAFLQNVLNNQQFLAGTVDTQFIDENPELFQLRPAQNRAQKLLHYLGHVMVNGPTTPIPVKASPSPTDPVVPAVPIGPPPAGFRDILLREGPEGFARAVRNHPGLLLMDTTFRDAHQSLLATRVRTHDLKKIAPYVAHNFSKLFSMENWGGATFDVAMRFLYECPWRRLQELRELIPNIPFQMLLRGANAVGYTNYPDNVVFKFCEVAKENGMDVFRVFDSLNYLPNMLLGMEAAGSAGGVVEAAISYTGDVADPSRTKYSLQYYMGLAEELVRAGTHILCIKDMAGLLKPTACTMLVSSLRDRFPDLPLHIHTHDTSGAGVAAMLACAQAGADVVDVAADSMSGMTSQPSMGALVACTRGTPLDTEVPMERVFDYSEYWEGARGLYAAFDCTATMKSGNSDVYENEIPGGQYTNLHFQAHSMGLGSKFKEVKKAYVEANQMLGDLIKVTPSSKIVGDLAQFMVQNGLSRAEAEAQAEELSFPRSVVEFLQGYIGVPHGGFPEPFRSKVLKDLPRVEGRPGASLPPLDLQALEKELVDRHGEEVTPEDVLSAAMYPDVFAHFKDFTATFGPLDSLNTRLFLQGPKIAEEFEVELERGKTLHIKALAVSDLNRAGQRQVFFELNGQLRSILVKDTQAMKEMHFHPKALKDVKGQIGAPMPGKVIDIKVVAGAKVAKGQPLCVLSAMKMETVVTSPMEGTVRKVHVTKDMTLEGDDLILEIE

For data set [4], the system named is ACC2. Conditions: ACC2 isolated from rat, mouse, monkey and human.
The conditions of data set [5]: rats, acute (46 min) treatment.
Data set [6] has as its system rat muscle slices.
In data set [7] the test system is ACC1. Conditions: ACC1 isolated from rat, mouse, monkey and human.
In data set [8] the target is T2, propionyl-CoA carboxylase (Homo sapiens, UniProt P05165+P05166).
T2 sequence (P05165 53-728): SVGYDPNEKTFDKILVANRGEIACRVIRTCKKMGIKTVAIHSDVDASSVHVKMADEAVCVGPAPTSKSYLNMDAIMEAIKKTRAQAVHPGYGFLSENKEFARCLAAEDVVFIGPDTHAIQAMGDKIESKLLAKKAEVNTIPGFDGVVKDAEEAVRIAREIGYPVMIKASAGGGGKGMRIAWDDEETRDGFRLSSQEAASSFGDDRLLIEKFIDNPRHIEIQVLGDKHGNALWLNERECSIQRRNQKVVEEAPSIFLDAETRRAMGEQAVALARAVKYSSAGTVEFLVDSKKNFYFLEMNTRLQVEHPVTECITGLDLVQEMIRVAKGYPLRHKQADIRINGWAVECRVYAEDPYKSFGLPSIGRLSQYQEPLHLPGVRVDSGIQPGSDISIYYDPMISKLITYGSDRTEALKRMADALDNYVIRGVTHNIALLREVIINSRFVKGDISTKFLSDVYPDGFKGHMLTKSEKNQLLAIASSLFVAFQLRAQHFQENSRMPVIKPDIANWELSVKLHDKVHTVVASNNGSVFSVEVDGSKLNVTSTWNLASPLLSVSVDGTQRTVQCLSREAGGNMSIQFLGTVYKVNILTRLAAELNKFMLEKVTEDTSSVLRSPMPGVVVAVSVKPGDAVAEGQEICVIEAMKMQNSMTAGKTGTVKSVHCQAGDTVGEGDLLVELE
T2 sequence (P05166 29-539): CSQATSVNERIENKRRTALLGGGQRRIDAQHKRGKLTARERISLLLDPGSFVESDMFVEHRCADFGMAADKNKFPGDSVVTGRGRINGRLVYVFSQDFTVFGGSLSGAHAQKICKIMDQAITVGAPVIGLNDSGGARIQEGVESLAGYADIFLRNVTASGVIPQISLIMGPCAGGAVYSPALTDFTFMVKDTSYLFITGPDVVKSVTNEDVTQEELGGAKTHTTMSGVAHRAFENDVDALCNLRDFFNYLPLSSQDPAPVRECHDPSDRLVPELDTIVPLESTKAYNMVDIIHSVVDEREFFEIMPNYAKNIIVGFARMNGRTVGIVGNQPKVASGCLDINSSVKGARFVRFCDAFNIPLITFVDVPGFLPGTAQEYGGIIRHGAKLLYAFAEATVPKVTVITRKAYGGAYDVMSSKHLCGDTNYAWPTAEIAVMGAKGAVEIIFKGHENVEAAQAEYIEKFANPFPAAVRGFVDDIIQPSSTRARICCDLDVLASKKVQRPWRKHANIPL

Data set [9] has as its system insulin-resistant rat muscle tissue. The settings on record: within 30 min of compound administration.
For data set [10] the following is noted: sucrose-fed rats, three weeks.
In data set [11] the test system is liposarcoma.

For the compound `O=C(c1c2ccccc2cc2ccccc12)N1CCC(N2CCC[C@@H](C(=O)N3CCOCC3)C2)CC1` [CP-640186], under “experimental animals”, the “liver and adipose tissue FA synthesis” value is given as “reduced”; the “whole body FA oxidation” value is given as “increased”. Also, for the setting “lipogenic and oxidative tissues, fed and fasted state”, the malonyl-CoA concentration entry is “acutely reduced”. For the same compound, the FA oxidation entry in data set [1] was “stimulated”. Besides, in [2], the CPT-I activity result is reported as “increased”, the FA synthesis entry is “reduced”, the apoA1 secretion result was “without affecting” and the apoB secretion result is reported as “reduced”. In addition, in [2], the cholesterol synthesis entry is “without affecting”; the “triglyceride synthesis and secretion” value is on record as “reduced”. Besides, the “inhibition of pyruvate carboxylase” value in data set [3] is reported as “without inhibiting”. Besides, the IC50 in data set [4] was approximately 0.06 µM. Besides, in data set [5], the FA clearance entry is recorded as “stimulated” and the glucose clearance result is reported as “without decreasing”. Also, in data set [6], the FA oxidation entry is recorded as “stimulated”. In addition, the IC50 in data set [7] was approximately 0.06 µM. The “inhibition of propionyl-CoA carboxylase” value in [8] was “without inhibiting”. For the same compound, in data set [9], the insulin sensitivity entry is listed as “stimulation”. Also, in [10], the insulin sensitivity result was “improved”; the leptin levels result is on record as “reduced”; the “liver, muscle and adipose triglycerides” value is “time- and dose-dependently reduced”. Further, the body weight result in data set [10] (selective fat reduction without reducing lean body mass) is “reduced”. In addition, the “hyperinsulinemia produced by the high sucrose diet” value in data set [10] (without changing plasma glucose levels) is recorded as “reduced”.
`CO[C@H]1CCCC[C@@H](c2ccccc2)OC(=O)[C@@H](C)[C@@]2(O)O[C@H]([C@@H](C)[C@H](O)[C@H]2OC)[C@@H](C)/C=C/[C@H]1OC` [soraphen A]: in data set [11], the lipogenesis result is “inhibited” and the tumor cell growth entry was “inhibited”.
